Laboratory results published in patent US7470684B2, “Spiropiperidine derivatives as NK3 antagonists” (Hoffmann-La Roche Inc., priority 2007, dated 2008).
Where a name gives a salt, the structure may show the parent alone.

What follows are compounds tested against T1, human NK3 receptor (Homo sapiens, UniProt P29371) (assay: [3H]SR142801 competition binding assay). Conditions: not given.
T1 construct: expressed in transfected cells; host or cells: HEK293 cells, transiently transfected; membranes
T1 sequence (P29371 1-465): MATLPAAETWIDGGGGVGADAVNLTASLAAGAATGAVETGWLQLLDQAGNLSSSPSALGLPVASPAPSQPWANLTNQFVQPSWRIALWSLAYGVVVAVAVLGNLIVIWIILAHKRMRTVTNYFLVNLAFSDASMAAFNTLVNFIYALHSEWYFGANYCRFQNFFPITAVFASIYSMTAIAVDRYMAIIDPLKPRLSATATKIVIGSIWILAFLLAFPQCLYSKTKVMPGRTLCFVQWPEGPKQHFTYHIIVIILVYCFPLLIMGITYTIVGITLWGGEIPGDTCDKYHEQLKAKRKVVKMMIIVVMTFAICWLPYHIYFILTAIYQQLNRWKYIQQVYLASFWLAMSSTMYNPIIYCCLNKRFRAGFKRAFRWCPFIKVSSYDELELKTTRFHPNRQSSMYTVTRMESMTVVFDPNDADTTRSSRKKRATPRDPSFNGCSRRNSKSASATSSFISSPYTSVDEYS
Procedure: [^3H]SR142801 Competition Binding Assay
hNK3 receptor binding experiment were performed using [^3H]SR142801 (Catalog No. TRK1035, specific activity: 74.0 Ci/mmol, Amersham, GE Healthcare UK limited, Buckinghamshire, UK) and membrane isolated from HEK293 cells transiently expressing recombinant human NK3 receptor. After thawing, the membrane homogenates were centrifuged at 48,000×g for 10 min at 4° C., the pellets were resuspended in the 50 mM Tris-HCl, 4 mM MnCl2, 1 μM phosphoramidon, 0.1% BSA binding buffer at pH 7.4 to a final assay concentration of 5 μg protein/well. For inhibition experiments, membranes were incubated with [^3H]SR142801 at a concentration equal to KD value of radioligand and 10 concentrations of the inhibitory compound (0.0003-10 μM) (in a total reaction volume of 500 μl) for 75 min at room temperature (RT). At the end of the incubation, membranes were filtered onto unitfilter (96-well white microplate with bonded GF/C filter preincubated 1 h in 0.3% PEI+0.3% BSA, Packard BioScience, Meriden, Conn.) with a Filtermate 196 harvester (Packard BioScience) and washed 4 times with ice-cold 50 mM Tris-HCl, pH 7.4 buffer. Nonspecific binding was measured in the presence of 10 μM SB222200 for both radioligands. The radioactivity on the filter was counted (5 min) on a Packard Top-count microplate scintillation counter with quenching correction after addition of 45 μl of microscint 40 (Canberra Packard S.A., Zürich, Switzerland) and shaking for 1 h. Inhibition curves were fitted according to the Hill equation: y=100/(1+(x/IC50)^nH), where nH=slope factor using Excel-fit 4 software (Microsoft). IC50 values were derived from the inhibition curve and the affinity constant (Ki) values were calculated using the Cheng-Prussoff equation Ki=IC50/(1+[L]/KD) where [L] is the concentration of radioligand and KD is its dissociation constant at the receptor, derived from the saturation isotherm. All experiments were performed in duplicate and the mean±standard error (SEM) of the individual Ki values was calculated.

SMILES | Ki
CCCCN(C)C(=O)C(CCN1CCC2(CC1)OC(=O)Nc1ccc(F)cc12)c1ccc(Cl)c(Cl)c1 (stereo not shown) [Example 14, N-butyl-2-(3,4-dichlorophenyl)-4-(6-fluoro-2-oxo-1,2-dihydro-1′H-spiro[3,1-benzoxazine-4,4′-piperidin]-1′-yl)-N-methylbutanamide] | 90.8 nM
CN1C(=O)OC2(CCN(CCC(C(=O)N3CCc4ccc(F)cc4C3)c3ccc(Cl)c(Cl)c3)CC2)c2cc(F)ccc21 (stereo not shown) [Example 38, 1′-[3-(3,4-dichlorophenyl)-4-(7-fluoro-3,4-dihydroisoquinolin-2(1H)-yl)-4-oxobutyl]-6-fluoro-1-methylspiro[3,1-benzoxazine-4,4′-piperidin]-2(1H)-one] | 48.7 nM
CN(Cc1ccc(Cl)cc1)C(=O)C(CCN1CCC2(CC1)OC(=O)N(C)c1ccc(F)cc12)c1ccc(Cl)c(Cl)c1 (stereo not shown) [Example 42, N-(4-chlorobenzyl)-2-(3,4-dichlorophenyl)-4-(6-fluoro-1-methyl-2-oxo-1,2-dihydro-1′H-spiro[3,1-benzoxazine-4,4′-piperidin]-1′-yl)-N-methylbutanamide] | 0.8 nM

Same assay, conditions: [3H]SR142801 displacement, membranes of HEK293 cells transiently expressing recombinant human NK3 receptor; read-out: hNK3 Ki

SMILES | Ki
Cc1ccc(CNC(=O)C(CCN2CCC3(CC2)OC(=O)Nc2ccc(F)cc23)c2ccc(Cl)c(Cl)c2)o1 (stereo not shown) [Example 9, 2-(3,4-dichlorophenyl)-4-(6-fluoro-2-oxo-1,2-dihydro-1′H-spiro[3,1-benzoxazine-4,4′-piperidin]-1′-yl)-N-[(5-methyl-2-furyl)methyl]butanamide] | 91.4 nM

Same assay, conditions: hNK3 Ki, [3H]SR142801 displacement, membranes of HEK293 cells transiently expressing recombinant human NK3 receptor

SMILES | Ki
CN(Cc1ccccc1)C(=O)C(CCN1CCC2(CC1)OC(=O)Nc1ccc(F)cc12)c1ccc(Cl)c(Cl)c1 (stereo not shown) [Example 1, N-benzyl-2-(3,4-dichlorophenyl)-4-(6-fluoro-2-oxo-1,2-dihydro-1′H-spiro[3,1-benzoxazine-4,4′-piperidin]-1′-yl)-N-methylbutanamide hydrochloride] | 11.2 nM
CCN(Cc1ccccc1)C(=O)C(CCN1CCC2(CC1)OC(=O)Nc1ccc(F)cc12)c1ccc(Cl)c(Cl)c1 (stereo not shown) [Example 6, N-benzyl-2-(3,4-dichlorophenyl)-N-ethyl-4-(6-fluoro-2-oxo-1,2-dihydro-1′H-spiro[3,1-benzoxazine-4,4′-piperidin]-1′-yl)butanamide] | 62.8 nM
O=C1Nc2ccc(F)cc2C2(CCN(CCC(C(=O)NCc3ccc(Cl)cc3)c3ccc(Cl)c(Cl)c3)CC2)O1 (stereo not shown) [Example 8, N-(4-chlorobenzyl)-2-(3,4-dichlorophenyl)-4-(6-fluoro-2-oxo-1,2-dihydro-1′H-spiro[3,1-benzoxazine-4,4′-piperidin]-1′-yl)butanamide] | 17 nM
CCN(Cc1ccccc1F)C(=O)C(CCN1CCC2(CC1)OC(=O)Nc1ccc(F)cc12)c1ccc(Cl)c(Cl)c1 (stereo not shown) [Example 12, 2-(3,4-dichlorophenyl)-N-ethyl-N-(2-fluorobenzyl)-4-(6-fluoro-2-oxo-1,2-dihydro-1′H-spiro[3,1-benzoxazine-4,4′-piperidin]-1′-yl)butanamide] | 31.2 nM
CN(Cc1ccc(Cl)cc1)C(=O)C(CCN1CCC2(CC1)OC(=O)Nc1ccc(F)cc12)c1ccc(Cl)c(Cl)c1 (stereo not shown) [Example 15, N-(4-chlorobenzyl)-2-(3,4-dichlorophenyl)-4-(6-fluoro-2-oxo-1,2-dihydro-1′H-spiro[3,1-benzoxazine-4,4′-piperidin]-1′-yl)-N-methylbutanamide] | 3.7 nM
CN(Cc1ccccc1Cl)C(=O)C(CCN1CCC2(CC1)OC(=O)Nc1ccc(F)cc12)c1ccc(Cl)c(Cl)c1 (stereo not shown) [Example 17, N-(2-chlorobenzyl)-2-(3,4-dichlorophenyl)-4-(6-fluoro-2-oxo-1,2-dihydro-1′H-spiro[3,1-benzoxazine-4,4′-piperidin]-1′-yl)-N-methylbutanamide] | 6.7 nM
CCN(Cc1ccc(C)cc1)C(=O)C(CCN1CCC2(CC1)OC(=O)Nc1ccc(F)cc12)c1ccc(Cl)c(Cl)c1 (stereo not shown) [Example 18, 2-(3,4-dichlorophenyl)-N-ethyl-4-(6-fluoro-2-oxo-1,2-dihydro-1′H-spiro[3,1-benzoxazine-4,4′-piperidin]-1′-yl)-N-(4-methylbenzyl)butnamide] | 15.7 nM
CN(Cc1cccc(Cl)c1)C(=O)C(CCN1CCC2(CC1)OC(=O)Nc1ccc(F)cc12)c1ccc(Cl)c(Cl)c1 (stereo not shown) [Example 19, N-(3-chlorobenzyl)-2-(3,4-dichlorophenyl)-4-(6-fluoro-2-oxo-1,2-dihydro-1′H-spiro[3,1-benzoxazine-4,4′-piperidin]-1′-yl)-N-methylbutanamide] | 5.2 nM
CN(Cc1cccc(Cl)c1)C(=O)C(CCN1CCC2(CC1)OC(=O)Nc1ccc(F)cc12)c1ccc(F)cc1 (stereo not shown) [Example 25, N-(3-chlorobenzyl)-4-(6-fluoro-2-oxo-1,2-dihydro-1′H-spiro[3,1-benzoxazine-4,4′-piperidin]-1′-yl)-2-(4-fluorophenyl)-N-methylbutanamide] | 59.4 nM
CN(Cc1ccc(Cl)cc1)C(=O)C(CCN1CCC2(CC1)OC(=O)Nc1ccc(F)cc12)c1ccc(F)cc1 (stereo not shown) [Example 26, N-(4-chlorobenzyl)-4-(6-fluoro-2-oxo-1,2-dihydro-1′H-spiro[3,1-benzoxazine-4,4′-piperidin]-1′-yl)-2-(4-fluorophenyl)-N-methylbutanamide] | 38.3 nM
CN(Cc1ccccc1Cl)C(=O)C(CCN1CCC2(CC1)OC(=O)Nc1ccc(F)cc12)c1ccc(F)cc1 (stereo not shown) [Example 27, N-(2-chlorobenzyl)-4-(6-fluoro-2-oxo-1,2-dihydro-1′H-spiro[3,1-benzoxazine-4,4′-piperidin]-1′-yl)-2-(4-fluorophenyl)-N-methylbutanamide] | 38.5 nM
CCN(Cc1ccccc1)C(=O)C(CCN1CCC2(CC1)OC(=O)N(C)c1ccc(F)cc12)c1ccc(Cl)c(Cl)c1 (stereo not shown) [Example 29, N-benzyl-2-(3,4-dichlorophenyl)-N-ethyl-4-(6-fluoro-1-methyl-2-oxo-1,2-dihydro-1′H-spiro[3,1-benzoxazine-4,4′-piperidin]-1′-yl)-butanamide] | 6.7 nM
Cc1ccc(CNC(=O)C(CCN2CCC3(CC2)OC(=O)N(C)c2ccc(F)cc23)c2ccc(Cl)c(Cl)c2)cc1 (stereo not shown) [Example 31, 2-(3,4-dichlorophenyl)-4-(6-fluoro-1-methyl-2-oxo-1,2-dihydro-1′H-spiro[3,1-benzoxazine-4,4′-piperidin]-1′-yl)-N-(4-methylbenzyl)butanamide] | 5.8 nM
CN1C(=O)OC2(CCN(CCC(C(=O)NCc3ccccc3)c3ccc(Cl)c(Cl)c3)CC2)c2cc(F)ccc21 (stereo not shown) [Example 32, N-benzyl-2-(3,4-dichlorophenyl)-4-(6-fluoro-1-methyl-2-oxo-1,2-dihydro-1′H-spiro[3,1-benzoxazine-4,4′-piperidin]-1′-yl)-butanamide] | 3.9 nM
CN1C(=O)OC2(CCN(CCC(C(=O)NCc3ccc(S(C)(=O)=O)cc3)c3ccc(Cl)c(Cl)c3)CC2)c2cc(F)ccc21 (stereo not shown) [Example 33, 2-(3,4-dichlorophenyl)-4-(6-fluoro-1-methyl-2-oxo-1,2-dihydro-1′H-spiro[3,1-benzoxazine-4,4′-piperidin]-1′-yl)-N-[4-(methylsulfonyl)benzyl]butanamide] | 54.7 nM
CN1C(=O)OC2(CCN(CCC(C(=O)NCc3ccc(Cl)cc3)c3ccc(Cl)c(Cl)c3)CC2)c2cc(F)ccc21 (stereo not shown) [Example 34, N-(4-chlorobenzyl)-2-(3,4-dichlorophenyl)-4-(6-fluoro-1-methyl-2-oxo-1,2-dihydro-1′H-spiro[3,1-benzoxazine-4,4′piperidin]-1′-yl)-butanamide] | 3.3 nM
CCN(Cc1ccc(C)cc1)C(=O)C(CCN1CCC2(CC1)OC(=O)N(C)c1ccc(F)cc12)c1ccc(Cl)c(Cl)c1 (stereo not shown) [Example 39, 2-(3,4-dichlorphenyl)-N-ethyl-4-(6-fluoro-1-methyl-2-oxo-1,2-dihydro-1′H-spiro[3,1-benzoxazine-4,4′-piperidin]-1′-yl)-N-(4-methylbenzyl)butanamide] | 4.2 nM
CN(Cc1cccc(Cl)c1)C(=O)C(CCN1CCC2(CC1)OC(=O)N(C)c1ccc(F)cc12)c1ccc(Cl)c(Cl)c1 (stereo not shown) [Example 40, N-(3-chlorobenzyl)-2-(3,4-dichlorophenyl)-4-(6-fluoro-1-methyl-2-oxo-1,2-dihydro-1′H-spiro[3,1-benzoxazine-4,4′-piperidin]-1′-yl)-N-methylbutanamide] | 1.1 nM
